The source of these data is patent US20260209199A1, “TRISULFIDE COMPOUND” (Kyowa Pharma Chemical Co., Ltd., priority 2022, published 2026).

The conditions of data set [1]: disclosed in Patent Literature 2 (WO2022/045052); cited from earlier work.
Data set [2] is described as follows: Octanol/water partition coefficient (log P), HPLC. The note with it: octanol/purified water, log10(concentration in octanol layer/concentration in aqueous layer).
Method: (§1) Then, 10 mL of octanol was added to each aqueous solution and shaken for 1 minute. 2 mL each was taken from the aqueous layer and the octanol layer, centrifuged, and allowed to stand for 1 hour. 1 mL was precisely measured from the standing solution, 2-propanol was added, and the volume was made up to 10 mL. […] (log P=log10 (concentration in octanol layer/concentration in aqueous layer))

Method for physchem: as §1

In turn, `CC1(C)OCC(C)(C)[C@H](C(=O)NCCC(=O)NCCSSSCCNC(=O)CCNC(=O)[C@@H]2OC(C)(C)OCC2(C)C)O1` [Acetonide-PTN-SSS, acetonide derivative of pantethine trisulfide] registered a logP in “physchem” of 1.56.

For the compound `CC(C)(CO)[C@@H](O)C(=O)NCCC(=O)NCCSSSCCNC(=O)CCNC(=O)[C@H](O)C(C)(C)CO` [PTN-SSS, Pantethine trisulfide], the “hydrogen sulfide elimination effect” value in data set [1] is recorded as “has a hydrogen sulfide elimination effect”. Besides, the “Partition coefficient (logP)” value in data set [2] is −0.39. `CC(=O)OCC(C)(C)[C@@H](O)C(=O)NCCC(=O)NCCSSSCCNC(=O)CCNC(=O)[C@H](O)C(C)(C)COC(C)=O` [Ac-PTN-SSS, acetyl derivative of pantethine trisulfide] registered a logP in “physchem” of 0.91.
